In paper PMC8155176, “Reversible modulation of circadian time with chronophotopharmacology” (Nature Communications, 2021):
pIC50: −log10 of the molar value. “Also recorded” adds a separate entry of the source. Read-outs that look alike come from different tables or passages of the source.

Legend:
[1] = Fatigue on repeated photoisomerization cycles; format: physicochemical
Description: Upon reaching PSS distribution with green light, thermal back-isomerization was followed in the dark for 14 h (gray background). After this period, violet light was applied (violet rectangle) for 8 min to confirm the presence of the remaining cis-isomer and estimate cis-to-trans ratio. Green light allowed for switching to the cis-isomer once again (green rectangle), showing that in situ isomerization is possible. c Reversible photochromism in cell culture medium followed at 312 nm absorbance. […] The thermally adapted sample is shown in black (dark), irradiated with green light in vitro (pre-incubation, shown in green), with violet light in cellulo (post-incubation, shown in gray), and with green light in vitro followed by violet light in cellulo in purple. The control experiment with longdaysin is also shown. Luminescence rhythm profiles and data for DMSO-treated cells are shown in Supplementary Figs. 25 and 26, respectively. Luminescence is given in arbitrary units. n = 3 biologically independent samples for the CKIα enzymatic assay (d), n = 2 biologically independent samples for the CKIδ enzymatic assay (d), and n = 3 biologically independent samples for the cellular assay (e). […]
Supplementary Figure 30. […] The spectrum is measured at pH 7.4 (0.1 mM in water) and in presence of 0.1 mM concertation of luciferin. […]

CKIα = target: T1, CKIα (Homo sapiens, UniProt P48729); assay: In vitro kinase assay (Kinase Glo), CKIα; format: biochemical
T1 construct: purchased Invitrogen PV3850
T1 sequence (P48729 whole entry): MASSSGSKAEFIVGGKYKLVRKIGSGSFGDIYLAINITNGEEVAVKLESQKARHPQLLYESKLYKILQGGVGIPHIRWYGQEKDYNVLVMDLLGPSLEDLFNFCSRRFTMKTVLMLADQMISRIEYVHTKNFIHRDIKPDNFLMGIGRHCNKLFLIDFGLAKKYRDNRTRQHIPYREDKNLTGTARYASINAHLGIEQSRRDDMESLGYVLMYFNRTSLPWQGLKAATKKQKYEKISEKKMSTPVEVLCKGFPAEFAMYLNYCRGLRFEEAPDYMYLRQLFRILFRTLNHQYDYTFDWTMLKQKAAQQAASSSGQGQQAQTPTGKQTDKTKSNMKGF
Description: A stock solution of 7.4 mM in DMSO was prepared and thermally adapted by heating to c.a. 100 °C for 1 min. Two series of eight samples were prepared with consecutive three-time dilutions from the stock solution. One of the series (‘dark’ samples) was prepared in dark Eppendorf tube, the other series (‘light’ samples) was pre-irradiated with UV light (365 nm, UV lamp Spectroline, ENB-280/FE, 1 × 8 Watt) for 45 min. For compound 9, 1 mM solution in DMSO was thermally adapted by heating to 80 °C for 2 min and split into two vials. One vial was kept in the dark and the other was irradiated with green light (530 nm, 3x Nichia NCSG219B-V1, 3 × 550 mW, Sahlmann Photochemical Solutions) for 60 min. Both dark-kept and irradiated samples were subjected to 8-point 3-fold dilutions. All the solutions were applied to the well plate under a red lamp in the dark room in order to prevent ambient-light-induced photo-isomerization.
The assays were performed on a white, solid-bottom 384-well plates. The total volume for the reaction is 10.5 µl. Firstly, a solution of CKI and peptide was added to the bottom of the well (9 µL). Next, a corresponding solution of the compound (0.5 μL, final 5% DMSO) followed by 50 μM ATP solution (1 μL) were pipetted into the upper corners of each well. The enzymatic reaction was started by spinning down the plate (1800 x g, 2 min).
By employing this method, all reactions were started at the same time, minimizing variance between different samples. Incubation for 3 h at 30 °C or 2 h at 37 °C allowed for the enzymatic phosphorylation of the substrate peptide. As the reaction started, the wells with ‘light’ samples were irradiated with UV light or kept in dark in case of experiment with compound 9. ‘Dark’ (0 min pre-irradiation) wells were covered with an aluminum sticker from the beginning. After the incubation, 10 μL Kinase Glo® (Promega) was applied into the wells and the luminescent signal was recorded by a plate reader (BioTek Synergy H1 or Cytation).
The total volume for the reaction was 10.5 µl. The reaction mixture contained the following: for CKIδ, 4 ng/µl CKIδ (14-520, Eurofins), 50 µM peptide substrate RKKKAEpSVASLTSQCSYSS corresponding to human PER2 Lys659-Ser674, and CKI buffer (40 mM Tris, 10 mM MgCl2, 0.5 mM DTT, 0.1 mg/ml BSA, pH7.4); for CKIα, 1 ng/µl CKIα (PV3850, Invitrogen), 50 µM CKI peptide substrate (60547-1, Anaspec), and CKI buffer.
The data obtained from the in vitro kinase assay was analyzed using GraphPad software, in which the luminescence outcome is normalized. Normalization is done using a luminescent output of the control that contained high concentration of longdaysin (370 µM) as 100% inhibition and DMSO for 0% inhibition. In all graphs, a dose-response fit was used to obtain

[2] = thermally adapted trans-isomer kept in the dark, read-out: CKIα IC50, dark

| SMILES | fatigue upon repeated illumination cycles [1] | potency relative to longdaysin (CKIα; CKI activity) | fold difference in CKIα IC50 between trans-form and cis-isomer (CKIα; green light 530 nm vs dark) [fold] | pIC50 (CKIα; pre-irradiated with green light (530 nm), 86% cis, read-out: CKIα IC50, 530 nm) | pIC50 (CKIα; [2]) | pIC50 (CKIα; irradiated with UV light (365 nm) before and during the assay, cis-enriched, read-out: CKIα IC50, light) | fold difference in CKIα inhibition between dark and UV-irradiated sample (CKIα; trans vs cis-enriched (365 nm), 5 is stronger under light, the others weaker) [fold] |
| --- | --- | --- | --- | --- | --- | --- | --- |
| CC(C)n1cnc2c(NCc3ccc(F)c(/N=N/c4c(F)cccc4F)c3F)ncnc21 [Compound 9] | very low fatigue; also recorded: Almost no fatigue | comparable to that of longdaysin | 1.5 | 5.09 | 5.28 | – | – |
| Cc1nn(C)c(C)c1/N=N/c1cccc(CNc2ncnc3c2ncn3C(C)C)c1 [Compound 8] | low fatigue | – | – | – | 5.52 | 4.62 | 8 |
